Usually mortality stands for the share of the test organisms that died. High values mean fewer survivors, low ones more survivors.

Each structure is given as a SMILES string.

These results are taken from US8193364B2, “Insecticidal N-substituted (6-haloalkylpyridin-3-yl)-alkyl sulfoximines” (Dow AgroSciences, LLC., priority 2006, dated 2012).

Assay type in all cases: in vivo
In assay [1] the test system is Green Peach Aphid (Myzus persicae). In words: Green peach aphid foliar spray assay on cabbage. Particulars: 72 h, read-out: % Control at ppm, foliar spray, green peach aphid on cabbage. The procedure: Cabbage seedlings grown in 3-inch pots, with 2-3 small (3-5 cm) true leaves, were used as test substrate. The seedlings were infested with 20-50 green peach aphids (wingless adult and nymph) 2-3 days prior to chemical application. Four seedlings were used for each treatment. Compounds (2 mg) were dissolved in 2 ml of acetone:methanol (1:1) solvent, forming stock solutions of 1000 ppm. The stock solutions were then diluted with a diluent consisting 80 parts of 0.025% Tween 20 in […] and 20 parts of acetone:methanol (1:1). A hand-held Devilbiss sprayer was used for spraying the test solutions to both sides of cabbage leaves until runoff. Reference plants (solvent check) were sprayed with the diluent only. Treated plants were held in a holding room for three days at approximately 23° C. and 40% RH prior to grading. Evaluation was conducted by counting the number of live aphids per plant under a microscope. Insecticidal activity was measured by using Abbott's correction formula: Corrected % Control=100*(X−Y)/X • where X=No. of live aphids on solvent check plants • Y=No. of live aphids on treated plants The Corrected % Control values from assays are given in Table 2.

In assay [2] the test system is Green Leafhopper (Nephotettix sp.). Briefly: Green leafhopper root-uptake systemic assay on rice. The procedure: A foliar spray assay and a root-uptake systemic assay were performed on both brown planthopper and green leafhopper. Four-week-old rice seedlings were submerged in 3-cm depth of water in the bottom portion (high 5 cm, diameter 3 cm) of a 2-part glass cylinder (high 18 cm, diameter 3 cm). A metal screen was used to hold the seedlings within the bottom portion. Scotch tape was used to bind the two portions of the cylinder after setting up the seedlings. A metal cap was used to cover the cylinder. There were 4 cylinders for each treatment. The test compound was dissolved in acetone to make a 10,000 ppm stock solution. For the foliar spray assay, this stock solution was diluted with water to make 10, 2.5, 0.31, 0.08 and 0.02 ppm test solutions. A volume of 0.5 ml of a test solution or solvent blank as check was sprayed into the glass cylinder. For systemic test, the stock solution was incorporated at final test concentrations of 10, 2.5, 0.31, 0.08 and 0.02 ppm in the water in which rice seedlings were submerged. In both foliar spray and systemic tests, five laboratory-reared 3rd instar nymphs of brown planthopper or green leafhopper were introduced into each cylinder 3 hr after insecticide application. The treated test units were kept in a growth chamber with conditions set as followings: Temperature 28±0.5° C.; Relative humidity 70±0.5%; Photoperiod […].

Assay [3] concerns Sweet Potato Whitefly (Bemisia tabaci). Briefly: Sweet potato whitefly foliar spray assay on cotton. The note with it: 12 days, live large nymphs. The source says: This test was designed to measure the capability of whitefly eggs and/or young nymphs to develop to large nymphs. Cotton seedlings at the growth stage of one or two expanding true leaf were trimmed so that only the first true leaf remained (cotyledon leaves were also removed). The plants were pre-infested with sweet potato whitefly eggs by keeping plants next to the colony-keeping plants for two days. The infested plants were carefully checked for presence of similar egg density before use in the insecticidal tests. Master solutions of test compounds at 1000 ppm were prepared in acetone:methanol (1:1). The 12.5 ppm spray solutions were then made by diluting 0.188 mL of the master solution with 14.812 ml of 0.025% Tween 20 in water. The lower concentrations were made by diluting the 12.5 ppm spray solution with a diluent consisting 98.75 parts of 0.025% Tween 20 in water and 1.25 parts of acetone:methanol (1:1). The diluent was used as solvent control. The test solutions were sprayed with a hand-held Devilbiss sprayer until runoff to both sides of the infested cotton leaves. Four plants (4 replications) were used for each treatment. Treated plants were held in a holding room for 12 days at approximately 23° C. and 40% RH before evaluation. To evaluate the efficacy of the compounds, the number of live large nymphs in an area of 1 square inch on the lower surface of the treated cotton leaves was counted under a microscope. Insecticidal activity was determined by Corrected % Control using Abbott's correction formula and presented in Table 5: Corrected % Control=100*(X−Y)/X • where X=No. of live large nymphs on solvent check plants • Y=No. of live large nymphs on treated plants

Assay [4] relates to Green Peach Aphid (Myzus persicae). In words: Green peach aphid root uptake assay on pepper. Particulars: 3 days after infestation. Here is the method:
Systemic activity of compound 2 against green peach aphid was evaluated in a root uptake assay. Bell peppers (Capsicum annum var. California Wonder) was used as test plant seeded and grown in rock wool plugs. Plants were grown to expanding 1st true leaf stage. The rock wool plugs containing individual plants were placed in 1-ounce cups and surrounded with white clean sand. Five plants were used for each treatment. Stock solution of 1000 ppm was made by dissolving 2 mg of technical test compound in 2 mL acetone. The highest test concentration (10 ppm, 0.05 mg/5 ml) was prepared by diluting 0.32 mL stock solution with 1.6 mL acetone and 30.08 mL DI water, containing 6% acetone. Lower test concentrations were prepared by sequentially diluting 6.5 mL higher concentration (start from the 10 ppm test solution) with 26.0 ml acetone:DI water (6:94). A volume of 5 mL was applied to each cup (each plant). Use 6% acetone in water as solvent check. After insecticide application, the seedlings were infested with green peach aphids and held in a growth chamber (25° C., 50 R.H, 16 hr light: 8 hr drak). Number of live aphid on each plant was counted at 3 days after infestation. Calculations for % control were based on a corrected basis compared to the populations on the solvent check plants. Corrected % Control=100*(X−Y)/X • where X=No. of live aphids on solvent check plants • Y=No. of live aphids on treated plants The Corrected % Control values from lower test rates are given in Table 6.

Assay [5] deals with Cat Flea (Ctenocephalides felis). In words: Cat flea filter wool assay. The note with it: 48-hour observation. The procedure: Compound 2 was evaluated in a dose response series to establish the range of activity of the test compound. Technical material was dissolved in acetone and diluted with the same solvent to obtain the test concentrations. Bioassays were conducted by treating polyester aquarium filter wool with 1.0 ml of the test solution, thoroughly saturating the substrate and allowing it to dry for at least 1 hour. The dry filter wool was then placed into 10 cm plastic Petri dishes and covered with the lid. Each treatment was replicated 5 times. Approximately 15 unfed cat flea adults were placed into each replicate of each dosage being evaluated. Mortality was assessed at 2, 8, 24 and 48 hours after introduction of the fleas into the test system. The mean percent mortality for each dosage group and time interval was determined and results from the 48-hour observation are presented in Table 9.

For the compound `CC(c1ccc(C(F)(F)F)nc1)S(C)(=O)=NC#N` (stereo not shown) [Compound 2, [1-(6-trifluoromethylpyridin-3-yl)ethyl](methyl)-oxido-λ^4-sulfanylidenecyanamide], the pest or weed control at 0.195 ppm in assay [1] lay within 80 to 89%. In assay [1], the pest or weed control at 0.781 ppm is 90 to 100%. Besides, the pest or weed control at 3.125 ppm in assay [1] lay within 90 to 100%. The “% Control at ppm against green leafhopper” value in assay [2] (0.02 ppm in water) was “D (60-69)”; in assay [2] (0.08 ppm in water), “B (80-89)”; in assay [2] (0.31 ppm in water), “A (90-100)”; in assay [2] (2.5 ppm in water), “A (90-100)”; in assay [2] (10 ppm in water), “A (90-100)”. Further, the results for the “% Control at ppm, foliar spray, sweet potato whitefly on cotton” value in assay [3] (0.781 ppm), in assay [3] (3.125 ppm) and in assay [3] (12.500 ppm) were 80%, 94% and 100%, respectively. For the same compound, the “% Control, root uptake systemic, green peach aphid on pepper” value in assay [4] (0.08 ug/plant) was 61%; in assay [4] (0.4 ug/plant), 95%; in assay [4] (2 ug/plant) it was 100%; in assay [4] (10 ug/plant), 100%. In assay [5] (5 ppm), this compound returned a mortality at 5 ppm of 18%. Also, in assay [5] (50 ppm), the mortality at 50 ppm was 25%. This compound also showed a mortality at 500 ppm in assay [5] (500 ppm) of 40%. In assay [5] (5,000 ppm), this compound gave a mortality at 5000 ppm of 57%.
